Test results as given in paper PMC9916441, “Resveratrol Derivative Exhibits Marked Antiproliferative Actions, Affecting Stemness in Pancreatic Cancer Cells” (International Journal of Molecular Sciences, 2023).

Experiments:
[1] = system: AsPC-1; test: MTT cell viability assay; format: cell-based, human; details: for IC50: Homo sapiens, ASPC1, AsPC-1, MTT, 72 h
Description: (§1) The cell viability was assessed using MTT assay, as previously described. Briefly, the cells were seeded in 96-well plates (4 × 10^3 cells/well) and were treated for 72 h with different concentrations of RSV, DF5, and DF12. The IC50 values were extrapolated from dose–response curves and calculated using the CompuSyn software (https://www.combosyn.com/). The selectivity index (SI) values were calculated as ratios between the IC50 values of compounds in normal HFF-1 fibroblast cells and the IC50 values of the same compounds in the PC cell lines.

[2] = system: BxPC-3; test: MTT cell viability assay; format: cell-based, human; details: for IC50: Homo sapiens, BxPC-3, MTT, 72 h
Description: as §1

[3] = system: Capan-2; test: MTT cell viability assay; format: cell-based, human; details: for IC50 / viability at 50 µM: Homo sapiens, Capan-2, MTT; for IC50: 72 h; for viability at 50 µM: plateau reached already at 50 µM, read-out: residual viability
Description: as §1

[4] = system: AsPC-1; test: Colony formation assay; format: cell-based, human; details: AsPC-1, 20 µM, 72 h treatment
Description: (§2) A colony formation assay was performed as previously described. Briefly, the PC cells were seeded in 6-well plates, incubated for 24 h, and then treated for 72 h with 20 μM DF5, DF12, and RSV or with vehicle (DMSO) as indicated. After 4 days, following methanol fixation and crystal violet staining, the colonies of at least 30 cells were counted.

[5] = system: BxPC-3; test: Colony formation assay; format: cell-based, human; details: BxPC-3, 20 µM, 72 h treatment
Description: as §2

[6] = system: Capan-2; test: Colony formation assay; format: cell-based, human; details: Capan-2, 20 µM, 72 h treatment
Description: as §2

[7] = system: normal HFF-1 fibroblast cells; test: MTT cell viability assay on normal fibroblasts; format: cell-based, human; details: 72 h
Description: as §1

[8] = system: AsPC-1; test: Flow cytometry immunophenotyping of CD133+EpCAM+ cancer stem-like subpopulation; format: cell-based, human; details: AsPC-1, 20 μM, 72 h
Description: (§3) The expression of CD133 and EpCAM surface antigens was evaluated using flow cytometry. Briefly, the PC cells were seeded in 6-well plates and treated for 72 h with 20 μM DF5, RSV, or with vehicle (DMSO). After treatment, the cells were collected in PBS and stained at room temperature in the dark for 30 min with PE-CD133, FITC-EpCAM antibodies, and Reactive Dye. After labeling, the samples were washed in PBS by centrifugation at 1500 rpm for 10 min, to remove excess antibodies. Flow cytometer performance, stability, and data reproducibility were daily checked by using the CS&T quality control Module (BD Biosciences). The gating strategy and the evaluation of non-specific fluorescence was determined using fluorescence minus one (FMO) controls. The data were acquired with FACSVerse analyzer equipped with a volumetric count module (BD Biosciences, San Jose, CA, USA) and are expressed as the percentage of positive cells.

[9] = system: BxPC-3; test: as above; format: cell-based, human; details: BxPC-3, 20 μM, 72 h
Description: as §3

[10] = system: Capan-2; test: as above; format: cell-based, human; details: Capan-2, 20 μM, 72 h
Description: as §3

[11] = system: AsPC-1, BxPC-3 and Capan-2 PC cell lines; test: Cell growth, trypan blue exclusion test; format: cell-based, human; details: 50 μM, counted at 24, 48 and 72 h, three PC cell lines, vs control
Description: The cell counting was performed using the trypan blue exclusion test. Briefly, PC cells were seeded in 24-well plates (5 × 10^4 cells/well) and then were treated with 50 μM of DF5, RSV, or with vehicle and counted at 24, 48, and 72 h.

[12] = system: AsPC-1; test: Apoptosis assay, annexin-V staining by flow cytometry; format: cell-based, human; details: 24 h
Description: (§4) The apoptosis assay was performed essentially as previously described. the analyses were performed using a CytoFLEX flow cytometer, using the FL1 detector in linear mode and the CytoExpert software (Beckmann Coulter, Milano, Italy).

[13] = system: BxPC-3; test: as above; format: cell-based, human; details: 24 h
Description: as §4

[14] = system: Capan-2; test: as above; format: cell-based, human; details: 24 h
Description: as §4

[15] = system: poly-(ADP-ribose) polymerase (PARP); test: Western blot of PARP cleavage in PC cell lines; format: cell-based, human; details: vs untreated cells
Description: (§5) The PC cell lines treated with 50 μM DF5, RSV, or with vehicle (DMSO) were lysed in a cell lysis buffer containing PMSF, protease inhibitors cocktails, and phosphatase inhibitors. The protein lysate quantification and immunoblot analyses were performed as previously described.

[16] = system: p-SER^139H2AX; test: Western blot of phospho-H2AX (γH2AX) in PC cell lines; format: cell-based, human
Description: as §5

[17] = system: AsPC-1, BxPC-3 and Capan-2 PC cell lines; test: Cell cycle analysis by flow cytometry; format: cell-based, human; details: 50 μM, 24 h
Description: To perform the cell cycle analysis, the PC cells (3 × 10^5) were collected, fixed in 70% cold ethanol, and kept at 4 °C overnight. The collected cells were incubated at 4 °C overnight in 5 μg/mL PI (final concentration) and 100 μg/mL RNAse (final concentration). The cell cycle profiles were analyzed as previously described.

[18] = system: Cyclin D3; test: Western blot of cyclin D3 in PC cell lines; format: cell-based, human; details: 50 μM
Description: as §5

[19] = system: cyclin B1/CDK1 complex; test: Western blot of cyclin B1, Cdc2/Cdk1 and p-Cdc2 (Thr161) in PC cell lines; format: cell-based, human; details: 50 μM, BxPC-3
Description: as §5

[20] = set-up: method as in PMID 25224342; details: based on solubility of ref 43; cited from earlier work

## Oc1ccc(/C=C/c2ccc3ccccc3c2)cc1 [DF12]
[1]
  IC50: 11.1 µM
[2]
  IC50: 18.3 µM
[3]
  IC50: 58.1 µM
  viability at 50 µM: > 50%
[4]
  effect on clonogenicity (colony formation): relevant effects on clonogenic capacity
[5]
  effect on clonogenicity (colony formation): relevant effects on clonogenic capacity
[6]
  effect on clonogenicity (colony formation): marginal effects

## Oc1ccc(/C=C/c2cc(O)cc(O)c2)cc1 [RSV, 3,5,4′-trihydroxy-trans-stilbene, reference compound]
[1]
  IC50: 29 µM
[1]; SI = IC50 on normal HFF-1 fibroblast cells/IC50 on AsPC-1
  Selectivity Index (SI) AsPC-1: > 3.45
[2]
  IC50: 48.7 µM
[2]; SI = IC50 on normal HFF-1 fibroblast cells/IC50 on BxPC-3
  Selectivity Index (SI) BxPC-3: > 2.05
[3]
  IC50: > 100 µM
  viability at 50 µM: > 50%
[3]; SI = IC50 on normal HFF-1 fibroblast cells/IC50 on Capan-2
  Selectivity Index (SI) Capan-2: > 1.00
[7]; up to 100 μM
  toxicity against normal HFF-1 fibroblast cells: negligible toxicity
[7]; Homo sapiens, normal HFF-1 fibroblasts, 100 μM highest concentration used
  IC50: > 100 µM
[4]
  effect on clonogenicity (colony formation): significantly, but modestly, affected clonogenic activity
[5]
  effect on clonogenicity (colony formation): significantly, but modestly, affected clonogenic activity
[6]
  effect on clonogenicity (colony formation): significantly, but modestly, affected clonogenic activity
[8]
  effect on percentage of CD133+EpCAM+ cancer stem-like subpopulation: did not affect this subpopulation
[9]
  effect on percentage of CD133+EpCAM+ cancer stem-like subpopulation: more marked effect
[10]
  effect on percentage of CD133+EpCAM+ cancer stem-like subpopulation: did not affect this subpopulation
[11]
  effect on cell growth (cell number): significantly, drastically, and comparably affected cell growth
[12]; AsPC-1, 20 μM
  apoptosis induction (Annexin V+ cells): statistically significant apoptosis
[12]; AsPC-1, 50 μM
  apoptosis induction (Annexin V+ cells): significant but less marked increment of apoptotic cells
[13]; BxPC-3, 20 μM
  apoptosis induction (Annexin V+ cells): neither compound affected apoptosis
[13]; BxPC-3, 50 μM
  apoptosis induction (Annexin V+ cells): significant but less marked increment of apoptotic cells
[14]; Capan-2, 20 μM
  apoptosis induction (Annexin V+ cells): statistically significant apoptosis
[14]; Capan-2, 50 μM
  apoptosis induction (Annexin V+ cells): significant but less marked increment of apoptotic cells
[15]; AsPC-1, 50 μM
  effect on cleaved:uncleaved PARP ratio: affected the PARP cleavage ratio
[15]; BxPC-3, 50 μM
  effect on cleaved:uncleaved PARP ratio: small
[15]; Capan-2, 50 μM
  effect on cleaved:uncleaved PARP ratio: negligible
[16]; AsPC-1, 50 μM
  activation (phosphorylation) of H2AX: increased H2AX phosphorylation
[16]; BxPC-3, 50 μM
  activation (phosphorylation) of H2AX: to a lesser extent
[16]; Capan-2, 50 μM
  activation (phosphorylation) of H2AX: no activation of H2AX
[17]; across the three PC cell lines, vs untreated cells
  effect on cells in G0/G1 phase: statistically significant accumulation of cells at the G0/G1 phase
[17]; three PC cell lines, in Capan-2 it did not reach statistical significance
  effect on cells in G2/M phase: drastic depletion of cells in the G2/M phase
[18]
  effect on cyclin D3 expression: present but less marked
[19]
  effect on expression of the cyclin B1/CDK1 complex: much less evident
[20]
  Classification (water solubility): PI (PI (Practically Insoluble))
